Measured values reported in patent US8952048B2, “Treatment of immune disorders using kainate receptor antagonists” (Virginia Commonwealth University, priority 2010, dated 2015).
“Also recorded” adds a separate entry of the source.

What was measured:
RPMI8866 cells = test: Soluble CD23 release assay in RPMI8866 cells; type: cell-based, human; details: for effect on increase in sCD23 release caused by KAR stimulation: 50 μM antagonist 1 hr prior to 5 mM KA or Glu; for effect on baseline sCD23 release: 50 μM antagonist, no KA or Glu
Description: For these studies, the CD23+ human B cell line RPMI8866 was grown in the presence or absence of 5 mM KA or Glu for 24 hours in CDMEM10 at a concentration of 1×10^6 cells/mL. For antagonist studies, prior to the addition of KA or Glu cells were pre-treated with 50 μM vehicle (DMSO), NBQX, NS 102, or TPM for one hour. After incubation, cell free supernatants were harvested and sCD23 levels determined by ELISA. […] Forty-eight hours later cell free supernatants were harvested for ELISA.
(§1) To determine the effect of ADAM10 inhibition on Ig production, purified human B cells were cultured with 10 ng/mL IL-4, 1 μg/mL anti-CD40, and 200 ng/mL IL-21 in complete culture media in the presence of DMSO as vehicle control or 10 μM ADAM10 specific inhibitor. Five days later, cell free supernatants were harvested for soluble CD23 release and fourteen days later, cell free supernatants were analyzed for Ig production. ELISAs. Human sCD23 ELISA was measured using a standard sandwich ELISA approach, using a mouse anti-CD23 (Clone BU38) coating antibody and sheep anti-CD23 (both from The Binding Site Birmingham, UK). Detection is performed with a goat anti-sheep IgG tagged with HRP (Southern Biotech Birmingham, Ala.). Determination of human IgE levels utilized a monoclonal mouse anti-human IgE antibody (clone 4.15) as a capture. Samples and standards were detected using a rabbit anti-human IgE-HRP (Southern Biotech) diluted in PBS/10% FBS. Human IgG or IgM were detected using a goat anti-human IgG or IgM followed by detection with a goat anti-human IgG or IgM tagged with HRP (All from Southern Biotech). Standards for the IgG and IgM ELISAs were purchased from Sigma. IgE standards were purified from JW8 hybridoma cells as previously described (Caven et al., 2005a). All assays utilized TMB substrate (BD Pharmingen San Diego, Calif.) and the reactions were stopped with 0.18M H2SO4. Plates are read at a wavelength of 450 nm on a SpectraMax 250 and data analyzed using SOFTmax PRO 3.1.2 software (Molecular Devices, Los Angeles, Calif.).

primary B cells = test: ADAM10 mRNA by qPCR in primary B cells; type: cell-based, human; details: 5 mM KA or glutamate, 30 minutes; normalized to beta-actin
Description: Alternatively when whole PBMC was used, buffy coats were obtained from the Virginia Blood Service Center (Richmond, Va.). PBMC were isolated by Ficoll gradient density centrifugation. All human studies research was performed in accordance to the Virginia Commonwealth University Institution Review Board per approved protocols. RT-PCR and qPCR. RNA was isolated via standard Trizol (Invitrogen) purification protocol and the Access Quick RT-PCR kit (Promega, Madison Wis.) was used with gene specific primers to examine for the presence of kainate receptor subunits and their transcript variants. Primers were designed using VectorNTI software (Invitrogen). Ready-made Primers® for G3PDH and all custom made primers for all sequences were synthesized by Integrated DNA Technologies (Coralville, Iowa). qPCR experiments were performed by the nucleic acid core in the ABI Prism® 7900 Sequence Detection System (Applied Biosystems, Foster City, Calif.) using the TaqMan® One Step PCR Master Mix Reagents Kit. All the samples were tested in triplicate using the following conditions: 48° C./30 min; 95° C./10 min; and 40 cycles of 95° C./15 sec and 60° C./1 min. The cycle threshold was determined to provide the optimal standard curve values (0.98 to 1.0). The probes and primers for ADAM10 (#Hs00153853_ml) were purchased from ABI. […] Relative ADAM10 mRNA is determined as a relative ratio based upon beta-actin.

primary human B cells [1] = test: Immunoglobulin production by primary human B cells (ELISA, 14 days); type: cell-based; details: for amount of IgE produced / effect on glutamate enhancement of IgG production: 14 days; for effect on glutamate enhancement of IgG production / effect on glutamate mediated increase in IgE production: 10 μM antagonist before culture; for effect on glutamate enhancement of IgG production: 5 mM glutamate
Description: (§2) Primary B cells or PBMC were cultured in the presence of 10 ng/mL IL-4 and 1 μg/mL anti-CD40 in complete culture media in the presence or absence of 5 mM KA or 5 mM Glu. When indicated, 200 ng/mL IL-21 was also added. For antagonism studies, prior to culture primary cells were treated with 10 μM vehicle (DMSO), NBQX, NS102, or TPM. After 14 days of culture, cell free supernatants were analyzed via ELISA for Ig levels. As cells are grown at various densities, line graphs represent Ig production as compared to cell density.
as §1

primary human B cells [2] = test: [3H]-thymidine proliferation assay, primary B cells; type: cell-based
Description: (§3) When PBMC is used the cell concentration is 100,000 cells/well. […] After 96 hours of growth, a 24 hr pulse [H^3]-thymidine (Perkin Elmer) was used. Plates were then harvested using a Filtermate cell harvester onto GFC plates. Assays were read using a Topcount Plate Counter (Perkin Elmer, Waltham, Mass.).

Human PBMC [3] = test: Immunoglobulin production in PBMC cultures (ELISA, 14 days); type: cell-based
Description: as §2, §1

[4] = system: B cells from SLE patients; test: SLE vs. normal donor B cell activity in the presence of antagonist; type: cell-based, human; details: Example 3, written in present tense
Excerpt: Peripheral blood from both SLE patients and normal donors is obtained. Presence of KARS: Specific KAR primers and Western protocols are used to analyze mRNA and protein expression, respectively, in cultured B cells from SLE patients. Flow cytometry is used to confirm cell surface expression. Comparison of the expression of KARs on B cells from normal vs. SLE patients, the presence of KARs on SLE patient B cells is confirmed.
B cells isolated from both donor populations are stimulated with anti-CD40 in the presence or absence of KAR activation to induce cellular proliferation. Differences among both groups both with and without KAR stimulation are determined. Proliferation is measured via H^3 thymidine incorporation as well as cell cycle divisions via CFSE dilution analysis.
B cells isolated from both populations are put in culture in the presence of IL-4 and anti-CD40, the two signals required for Ig production, in the presence or absence of KAR activation. After 14 days of culture, cell free supernatants are analyzed for total IgM, IgG, and IgE via ELISA. Furthermore, specificity of human antibodies is determined by employing commercially available human anti-nuclear antibody (ANA), anti-snRNP/Smith, and anti-dsDNA ELISA kits.
SLE vs. normal donor B cell activity is compared in the presence of at least one antagonist such as NS 102.

GluK2 containing KARs = details: Verdoorn et al., 1994; cited from earlier work
Human PBMC [5] = test: Proliferation assay, PBMC; type: cell-based; details: addition of glutamate
Description: as §3

B cells from KAR KO mice = test: In vitro culture of B cells from KAR KO mice with glutamate; type: cell-based, mouse; details: in the presence of glutamate; data not shown
[6] = IL-4, anti-CD40, IL-21, 5 mM glutamate, CDMEM-10, 14 days
[7] = 10 μM pretreatment 1 hour before glutamate
[8] = anti-CD40, IL-4, IL-21, glutamate

With `C=C(C)[C@H]1CN[C@H](C(=O)O)[C@H]1CC(=O)O` [KA, kainic acid] the “amount of sCD23 released following KAR activation” value (RPMI8866 cells; 5 mM KA or Glu, 24 hours, CDMEM10) was “significant elevation”, the “ADAM10 mRNA levels” value (primary B cells) was “significant increase” and the “amount of IgE produced” value (primary human B cells [1]; IL-4 and anti-CD40, CRPMI-10, 5 mM KA or Glu) was “strong and statistically significant increase”.
With `NS(=O)(=O)c1cccc2c1c([N+](=O)[O-])cc1nc(O)c(O)nc12` [NBQX] the “effect on increase in sCD23 release caused by KAR stimulation” value (“effect on increase” below) (RPMI8866 cells; 24 hours) was “no change is observed”, the “effect on baseline sCD23 release” value (RPMI8866 cells) was “none of the antagonists have any effect” and the “effect on glutamate enhancement of IgG production” value (primary human B cells [1]) was “unaffected”. For the same molecule, the “effect on glutamate mediated increase in IgE production” value (“effect on glutamate mediated increase” below) (primary human B cells [1]; [6]) was “no effect”.
For `O=C1Nc2c(cc([N+](=O)[O-])c3c2CCCC3)C1=NO` [NS102, 5-Nitro-6,7,8,9-tetrahydro-1H-benzo[g]indole-2,3-dione 3-oxime], the “effect on increase” value (RPMI8866 cells; 24 hours) was “could prevent the significant increase”, the “effect on baseline sCD23 release” value (RPMI8866 cells) was “none of the antagonists have any effect” and the “effect on glutamate enhancement of IgG production” value (primary human B cells [1]) was “blocked”. The “effect on glutamate mediated increase” value (primary human B cells [1]; [6]) was “almost completely blocks”, the “effect on glutamate mediated increase” value (primary human B cells [1]; IL-4, anti-CD40, IL-21, 5 mM glutamate, CDMEM-10, 14 days, listed as NS-102) was “dramatically reduced” and the “effect on glutamate-induced increase in proliferation” value (primary human B cells [2]; 10 μM pretreatment 1 hour before 5 mM glutamate) was “prevented”. The “effect on glutamate increase in IgE production” value (Human PBMC [3]; [7]) was “strongly blocked”, the “effect on glutamate increase in IgG production” value (Human PBMC [3]; [7]) was “strongly blocked” and the “B cell hyperactivity in SLE patients” value [4] was “overcomes the B cell hyperactivity”. The “selectivity of KAR antagonism” value (GluK2 containing KARs) was “selectively antagonizes”.
For `CC1(C)O[C@@H]2[C@@H](CO[C@@]3(COS(N)(=O)=O)OC(C)(C)O[C@@H]23)O1` [TPM, topiramate], the “effect on increase” value (RPMI8866 cells; 24 hours) was “no change is observed”, the “effect on baseline sCD23 release” value (RPMI8866 cells) was “none of the antagonists have any effect” and the “effect on glutamate mediated increase” value (primary human B cells [1]; [6]) was “did not influence IgE production”.
In the case of `N[C@@H](CCC(=O)O)C(=O)O` [glutamate, L-glutamic acid], the “ADAM10 mRNA levels” value (primary B cells) is reported as “significant increase”, the “total IgG production” value (primary human B cells [1]; [6]) is reported as “Enhancement in IgG production was seen in all but the highest density cultures” and the “total IgM levels” value (primary human B cells [1]; [6]) is reported as “not influenced”. For the same molecule, the “amount of IgE produced” value (primary human B cells [1]; IL-4, anti-CD40 plus IL-21, 5 mM glutamate) was “much more IgE; also recorded: pronounced increase”, the cell proliferation (primary human B cells [2]; 5 mM glutamate, IL-4, anti-CD40, IL-21, 96 hours plus 24 hr pulse) was “significant increase in proliferation” and the IgE synthesis (Human PBMC [3]; [8]) was “very strong enhancement”. The IgM production (Human PBMC [3]; [8]) was “not significantly influenced”, the “total IgG production” value (Human PBMC [3]; [8]) was “IgG enhancement was seen” and the proliferation (Human PBMC [5]) was “also affected”. The Ig synthesis (B cells from KAR KO mice) was “did not show any enhanced”, the proliferation (B cells from KAR KO mice) was “did not show any enhanced” and the sCD23 release (B cells from KAR KO mice) was “did not show any enhanced”.
